“Also recorded” adds a separate entry of the source. Where two headings read alike, the source gives them in different places.
How the values were obtained:
[1] = Solubility of compounds in DMSO, ethanol and Solutol-HS15 (20 mM stock solutions); type: physicochemical
Experimental: General Procedure for the Solutol Emulsions Preparation
The amino-alcohol compound of the invention (4 μmol) was mixed with Solutol HS15 (6.0 mg) and heated to 70-80° C. Hot water (1 ml) was added to the mixture and stirred thoroughly. Thickening occurs initially due to hydration and reaches a maximum when half of the water has been added. The viscosity decreases as more water is added.
The solubility of compounds of the invention in ethanol and DMSO was tested in order to study their cytotoxicity.

[2] = tested on: CRL-5803 (non-small cell lung carcinoma cell line); assay: Cytotoxicity test, IC50 determination by MTT test; type: cell-based; conditions: 24 hr incubation, 20000 cells/well, 10% serum, read-out: IC50 ± SD (MTT-Test), CRL5803
Experimental: (§1) Cytotoxicity Tests (IC50 Determination by MTT test)
(§2) The cytotoxicity of the compounds of the invention A1-A12 was tested in comparison to cis-Pt in four cancer cell-lines: […]
(§3) CRL-5803 (non-small cell lung carcinoma cell line), and
(§4) HT-29 (Human colon adenocarcinoma grade II) by MTT test after an incubation of 24 hours.
(§5) Culture Medium Preparation for Attached Cell-lines: A2780, A2780cisR, CRL-5803, HT-29. • Medium RPMI-1640: 86% • Serum (FCS-fatal calf serum/FBS-fatal bovine serum): 10% • L-Glutamine: 1% • Antibiotics-penicillin-streptomycin(P/S): 1% • Na pyruvate: 1% • HEPES: 1%

[3] = tested on: A2780 (ovarian carcinoma cell line); assay: Cytotoxicity test, IC50 determination by MTT test; type: cell-based; conditions: 24 hr incubation, 20000 cells/well, 10% serum, read-out: IC50 ± SD (MTT-Test), A2780
Experimental: as §1
(§6) The cytotoxicity of the compounds of the invention A1-A12 was tested in comparison to cis-Pt in four cancer cell-lines:
A2780 (ovarian carcinoma cell line), […]
as §4, §5

[4] = tested on: HT-29 (Human colon adenocarcinoma grade II); assay: Cytotoxicity test, IC50 determination by MTT test; type: cell-based; conditions: 24 hr incubation, 20000 cells/well, 10% serum, read-out: IC50 ± SD (MTT-Test), HT-29
Experimental: as §1, §2, §4, §5

[5] = tested on: A2780cisR (ovarian carcinoma-cisPt resistance cell line); assay: Cytotoxicity test, IC50 determination by MTT test; type: cell-based; conditions: 24 hr incubation, 20000 cells/well, 10% serum, read-out: IC50 ± SD (MTT-Test), A2780cisR
Experimental: as §1, §2
A2780cisR (ovarian carcinoma-cisPt resistance cell line), […]
as §4, §5

Caspase-3 = assay: Apoptosis determination by Caspase-3 assay (EnzCheck Caspase-3 Assay Kit #2); type: cell-based; conditions: 8 hr incubation
Experimental: Apoptosis Determination by Caspase-3 Assay
The assay was done according to the protocol of EnzCheck Caspase-3 Assay Kit #2 (Invitrogen) [Ref: 4].
Caspase-3 was checked using invitrogene protocol. 8 hr incubation was done.

[6] = tested on: SPM formation in A2780cisR cells; assay: Enzymatic assay in cells: formation of fluorescent SPM from Bodipy-12-CER (SMS inhibition), HPLC; type: cell-based; conditions: 72 hr incubation in total, related to the control
Experimental: (§7) Enzymatic Assay in Cells (SMS, GCS and CDase Enzyme inhibition Studies) • Plate 10,000 cells in 0.5 ml culture media per well in a 48 well plate. • Incubate (37° C., 5% CO2) overnight to allow the cells to attach to the wells. • Add 10 μl of the fluorescent reagent BodiPy-12-Cer 0.5 μM/well. • After 48 hr incubation with the BodiPy-12-Cer, add 10 μl of the drug of interest dissolved in DMSO/Ethanol/solutol to each well. • Incubate (37° C., 5% CO2) for another 24 hr. • Remove the media. • Wash each well with 200 μl PBS. • Add 2000 trypsin allow sitting for 5 minutes in incubator. • Neutralize Trypsin with culture medium (complete to 1 ml) • Add suspension to 1.5 ml ephendorf. • Centrifuge for 5 minutes at 1200 rpm then remove the media. • Extract the cells with 1 ml of 1:2 CH2Cl2:MeOH by strong vortex stirring followed by centrifuge for 5 minutes at 13400 rpm. Then add the extraction into 2 ml ephendorf. • Extract the cells again with the same procedure with 1 ml of 1:1 CH2Cl2:MeOH. • Remove the solvent. • Add 2000 ethanol into the 2 ml ephendorf, do strong vortex stirring followed by centrifuge for 5 minutes at 13400 rpm. • Take 150 μl of the above sample and inject to the HPLC to quantify the relative metabolite relatively to control samples. • HPLC method conditions are:
(§8) Conditions: RP-8 Column, EX. λ 505 nm, EM. λ 530 nm
(§9) A fluorescent procedure was utilized in order to study the enzymatic inhibition of glucosylceramide synthase (GCS), ceramidases (CDase) and sphingomyelin synthase (SMS) enzymes, which can shed some light on a possible mechanism for ceramide accumulation and apoptosis. The fluorescent procedure was based on a 48-hr incubation of cancer cells with the fluorescent substrate, Bodipy (4,4-difluoro-4-bora-3a,4a-diaza-s-indacene), conjugated ceramide (Bodipy-12-CER) followed by another 24-hr period of incubation in the presence of nontoxic concentrations of compounds of the invention (72 hr incubation in total). After a predetermine incubation period, cells were washed, their lipids were extracted and the various lipids containing fluorescent fatty acid-ceramide, SPM and GC were quantified by HPLC.

[7] = tested on: SPM formation in A2780 cells; assay: as above; type: cell-based; conditions: 72 hr incubation in total, related to the control
Experimental: as §7, §8, §9

[8] = tested on: SPM formation in CRL5803 cells; assay: as above; type: cell-based; conditions: nontoxic concentrations (A2: 4, 6, 8, 12 μM/well; A10: 0.5, 1, 2, 4 μM/well), 72 hr
Experimental: as §7, §8, §9

[9] = tested on: A2780, A2780cisR, CRL-5803, HT-29; assay: Cytotoxicity (MTT), overall statements on the four cancer cell-lines; type: cell-based; conditions: 24 hr, compared to cis-Pt
Experimental: as §1, §6
A2780 (ovarian carcinoma cell line),
A2780cisR (ovarian carcinoma-cisPt resistance cell line),
as §3, §4, §5

[10] = tested on: SPM formation in HT-29 cells; assay: Enzymatic assay in cells: formation of fluorescent SPM from Bodipy-12-CER (SMS inhibition), HPLC; type: cell-based, Human; conditions: nontoxic concentrations (A2: 4, 6, 8, 12 μM/well; A10: 0.5, 1, 2, 4 μM/well), 72 hr
Experimental: as §7
Conditions: RP-8 Column, EX. λ 505 nm, EM. λ 530 nm […]

[11] = Solutol-HS15 lipidic emulsion, aqueous with cosolvent or surfactant or cyclodextrin, read-out: Solubility, Solutol-HS15
[12] = organic solvent or mixture, DMSO, 20 mM stock solutions, read-out: Solubility, DMSO
[13] = organic solvent or mixture, ethanol, 20 mM stock solutions, read-out: Solubility, Ethanol
[14] = Homo sapiens, A2780, solutol solutions
[15] = Homo sapiens, HT-29, solutol solutions
[16] = Homo sapiens, A2780cisR, solutol solutions
[17] = Homo sapiens, A2780, ethanol solutions
[18] = Homo sapiens, HT-29, ethanol solutions
[19] = Homo sapiens, A2780cisR, ethanol solutions

SMILES	Solubility, Ethanol ([1]; ethanol, 20 mM stock solutions)	IC50 ([2]; ethanol solutions)	IC50 ([3]; ethanol solutions)	IC50 ([4]; ethanol solutions)	IC50 ([5]; ethanol solutions)	solubility [1, 11]	solubility [1, 12]	solubility [1, 13]	IC50 ([2]; solutol solutions)	IC50 [3, 14]	IC50 [4, 15]	IC50 [5, 16]	also measured
CCCCCCCCCCCCCCNCC(O)CCCCCCCCC (stereo not drawn) [Compound A11, 1-tetradecyl-amino-undecan-2-ol]	✓*	33 ± 6 µM	9 ± 2 µM	30 ± 7 µM	9 ± 3 µM	–	–	–	–	–	–	–	–
CCCCCCCCCCCCCCCCC(O)CNCCCCCC (stereo not drawn) [Compound A3, 1-Hexyl-amino-octadecan-2-ol]	–	–	–	–	–	> 4 mM	< 20 mM	< 20 mM	18 ± 2 µM	11 ± 1 µM	19 ± 5 µM	9 ± 1 µM	–
CCCCCCCCCCCCCCCCNCC(O)CCCCCCCCC (stereo not drawn) [Compound A12, 1-hexadecyl-amino-undecan-2-ol]	✓*	> 100 µM	> 100 µM	> 100 µM	> 100 µM	–	–	–	–	–	–	–	–
CCCCCCCCCCCCCCCCC(O)CNCCCC (stereo not drawn) [Compound A2, 1-Butyl-amino-octadecan-2-ol]	–	–	–	–	–	> 4 mM	–	< 20 mM	32 ± 4 µM	11 ± 3 µM	16 ± 2 µM	12 ± 3 µM	solubility in ethanol and DMSO ([1]; 20 mM stock solutions): only soluble in DMSO; Solubility, DMSO ([1]; DMSO, 20 mM stock solutions): ✓*; Caspase-3 increase (Caspase-3; 20 μM): 3 fold; inhibition of SPM formation ([6]; 6 μM): no significant effect; inhibition at 6 µM ([7]; Homo sapiens, 6 μM): ~10%
CCCCCCCCCCCCNCC(O)CCCCCCCCC (stereo not drawn) [Compound A10, 1-Dodecyl-amino-undecan-2-ol]	✓*	10 ± 2 µM	4 ± 1 µM	8 ± 2 µM	4 ± 1 µM	–	–	–	–	–	–	–	Caspase-3 increase (Caspase-3; 10 μM): 7 fold; SPM formation related to the control (in words) [8]: reduction in SPM formation; effect on SPM formation ([6]; 0.5 μM): ~8%; effect on SPM formation ([7]; 0.5 μM): about 22%; anticancer activity (in words) [9]: most active; also recorded: highest activity; SPM formation related to the control (in words) [10]: reduction in SPM formation
CCCCCCCCCCCCCCCCC(O)CN(CC)CC (stereo not drawn) [Compound A1, 1-DEA-amino-octadecan-2-ol]	–	–	–	–	–	> 4 mM	> 20 mM	> 20 mM	40 ± 3 µM	17 ± 4 µM	24 ± 4 µM	21 ± 1 µM	solubility in ethanol and DMSO ([1]; 20 mM stock solutions): good solubility in both solvents
N.N.[Cl][Pt][Cl] [cis-Pt, reference compound]	–	> 100 µM	30 ± 1 µM	> 100 µM	> 100 µM	–	–	–	> 100 µM	–	–	–	IC50 ([3]; solutol solutions): 30 ± 1 µM; IC50 ([4]; solutol solutions): > 100 µM; IC50 ([5]; solutol solutions): > 100 µM
CCCCCCCCCCCCCCCCC(O)CNCCCCCCCCCCCC (stereo not drawn) [Compound A5, 1-Dodecyl-amino-octadecan-2-ol]	–	–	–	–	–	> 4 mM	< 20 mM	< 20 mM	> 100 µM	> 100 µM	> 100 µM	> 100 µM	–
CCCCCCCCCC(O)CNCCCCCC (stereo not drawn) [Compound A8, 1-Hexyl-amino-undecan-2-ol]	–	33 ± 6 µM	–	–	–	–	> 20 mM	> 20 mM	–	–	–	–	IC50 [3, 17]: 16 ± 1 µM; IC50 [4, 18]: 33 ± 4 µM; IC50 [5, 19]: 22 ± 3 µM
CCCCCCCCCCCCCCCCC(O)CNCCCCCCCC (stereo not drawn) [Compound A4, 1-Octyl-amino-octadecan-2-ol]	–	–	–	–	–	> 4 mM	< 20 mM	< 20 mM	29 ± 4 µM	14 ± 3 µM	15 ± 6 µM	12 ± 2 µM	–
CCCCCCCCCC(O)CNCCCCCCCC (stereo not drawn) [Compound A9, 1-Octyl-amino-undecan-2-ol]	✓*	14 ± 1 µM	–	–	–	–	< 20 mM	–	–	–	–	–	IC50 [3, 17]: 7 ± 1 µM; IC50 [4, 18]: 11 ± 2 µM; IC50 [5, 19]: 10 ± 1 µM

Reference: patent US20150183721A1, “AMINO-ALCOHOL ANALOGUES AND USES THEREOF” (YISSUM RESEARCH DEVELOPMENT COMPANY OF THE HEBREW …, priority 2009, published 2015)
